“And” between values parts separate entries of the source, which are not always exact repeats. Equal entries are not always repeated.
Key:
Nociceptin receptor [1] = target: Nociceptin receptor (Homo sapiens, UniProt P41146)
[2] = target: Delta-type opioid receptor (Homo sapiens, UniProt P41143)
[3] = target: Nociceptin receptor (Cavia porcellus)
Nociceptin receptor [4] = target: Nociceptin receptor (Mus musculus, UniProt P35377)
Mu-type opioid receptor = Mu-type opioid receptor (Homo sapiens, UniProt P35372)
Nociceptin receptor [5] = target: Nociceptin receptor (Rattus norvegicus, UniProt P35370)
[6] = target: Kappa-type opioid receptor (Homo sapiens, UniProt P41145)
Sequence of Kappa-type opioid receptor (P41145 whole entry): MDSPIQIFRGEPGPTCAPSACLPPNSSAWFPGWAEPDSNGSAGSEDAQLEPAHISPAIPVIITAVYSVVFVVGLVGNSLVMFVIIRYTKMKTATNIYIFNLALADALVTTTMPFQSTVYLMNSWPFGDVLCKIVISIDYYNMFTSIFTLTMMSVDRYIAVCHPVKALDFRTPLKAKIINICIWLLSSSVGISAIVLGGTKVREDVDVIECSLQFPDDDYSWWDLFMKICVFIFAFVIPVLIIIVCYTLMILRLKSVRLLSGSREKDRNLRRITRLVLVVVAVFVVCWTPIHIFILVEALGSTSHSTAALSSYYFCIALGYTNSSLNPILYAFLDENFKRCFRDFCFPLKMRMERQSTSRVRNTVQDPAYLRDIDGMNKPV

Sequence of Nociceptin receptor (Mus musculus, UniProt P35377) (P35377 whole entry): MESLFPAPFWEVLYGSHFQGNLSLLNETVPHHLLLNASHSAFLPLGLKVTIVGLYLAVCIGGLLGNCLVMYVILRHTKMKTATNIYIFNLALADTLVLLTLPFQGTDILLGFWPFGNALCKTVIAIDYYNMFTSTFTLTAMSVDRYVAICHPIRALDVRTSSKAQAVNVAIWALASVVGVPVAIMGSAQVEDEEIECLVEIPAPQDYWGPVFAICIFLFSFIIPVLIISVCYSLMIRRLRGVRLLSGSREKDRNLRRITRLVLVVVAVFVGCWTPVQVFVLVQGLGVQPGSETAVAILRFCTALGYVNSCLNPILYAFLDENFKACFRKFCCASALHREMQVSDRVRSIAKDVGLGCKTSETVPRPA
Sequence of Nociceptin receptor (Homo sapiens, UniProt P41146) (P41146 whole entry): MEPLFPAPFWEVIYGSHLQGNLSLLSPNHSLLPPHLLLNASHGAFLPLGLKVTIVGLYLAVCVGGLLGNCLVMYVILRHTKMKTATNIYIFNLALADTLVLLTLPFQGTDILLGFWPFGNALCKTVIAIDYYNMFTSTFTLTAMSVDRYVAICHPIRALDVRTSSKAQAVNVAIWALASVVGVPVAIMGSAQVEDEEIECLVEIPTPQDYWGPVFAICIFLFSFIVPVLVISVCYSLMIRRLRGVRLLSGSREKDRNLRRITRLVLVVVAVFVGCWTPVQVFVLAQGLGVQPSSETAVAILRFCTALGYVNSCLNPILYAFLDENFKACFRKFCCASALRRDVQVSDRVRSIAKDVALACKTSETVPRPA
Sequence of Nociceptin receptor (Rattus norvegicus, UniProt P35370) (P35370 whole entry): as the sequence (P35377 whole entry) above, with F9Y, A335S counted along it
Sequence of Delta-type opioid receptor (P41143 whole entry): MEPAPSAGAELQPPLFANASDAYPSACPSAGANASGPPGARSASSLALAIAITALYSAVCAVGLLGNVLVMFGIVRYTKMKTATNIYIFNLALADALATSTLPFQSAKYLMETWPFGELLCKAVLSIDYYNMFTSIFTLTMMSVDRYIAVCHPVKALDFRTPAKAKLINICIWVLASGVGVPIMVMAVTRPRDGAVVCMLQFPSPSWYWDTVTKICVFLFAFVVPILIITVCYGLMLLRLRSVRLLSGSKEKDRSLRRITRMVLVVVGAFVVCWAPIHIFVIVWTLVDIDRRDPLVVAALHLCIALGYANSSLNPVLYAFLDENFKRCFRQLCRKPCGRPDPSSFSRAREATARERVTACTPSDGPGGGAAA
Sequence of Mu-type opioid receptor (P35372 whole entry): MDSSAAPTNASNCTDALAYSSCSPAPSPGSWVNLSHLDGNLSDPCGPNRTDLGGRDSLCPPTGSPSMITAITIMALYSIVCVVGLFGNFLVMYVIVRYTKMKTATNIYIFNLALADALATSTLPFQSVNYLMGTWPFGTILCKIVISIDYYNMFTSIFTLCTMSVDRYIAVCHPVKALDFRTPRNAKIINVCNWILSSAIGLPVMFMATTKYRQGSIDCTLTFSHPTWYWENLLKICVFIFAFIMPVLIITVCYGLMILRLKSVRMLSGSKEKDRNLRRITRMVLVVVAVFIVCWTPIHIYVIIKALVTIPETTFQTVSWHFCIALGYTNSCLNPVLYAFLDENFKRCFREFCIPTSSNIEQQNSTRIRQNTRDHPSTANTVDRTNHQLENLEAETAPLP

C[C@H](NC(=O)CNC(=O)[C@@H](NC(=O)[C@H](Cc1ccc(F)cc1)NC(=O)CNC(=O)CNC(=O)[C@@H](N)Cc1ccccc1)[C@@H](C)O)C(=O)N[C@@H](CCCNC(=N)N)C(=O)N[C@@H](CCCCN)C(=O)N[C@@H](CO)C(=O)N[C@@H](C)C(=O)N[C@@H](CCCNC(=N)N)C(=O)N[C@@H](CCCCN)C(=O)N[C@@H](CCCNC(=N)N)C(=O)N[C@@H](CCCCN)C(=O)N[C@@H](CC(N)=O)C(=O)N[C@@H](CCC(N)=O)C(N)=O [OFQ/N UFP-102]
Ki (Nociceptin receptor [1]): 0.076 nM and 0.068 nM and 0.021 nM | Ki [2]: 380 nM | EC50 [3]: 0.58 nM | Ki (Nociceptin receptor [4]): 0.38 nM and 0.65 nM and 0.36 nM | Ki (Mu-type opioid receptor): 70.8 nM | Ki (Nociceptin receptor [5]): 2.69 nM | Ki [6]: 4.79 nM

From BindingDB's records for doi:10.1124/jpet.104.077339 (Section of Pharmacology, 2005)
